The values below come from the OligoGym collection.

Several values for one entry are separate records, joined by “and”; a condition that tells them apart may be missing. Equal values may be shown once. HELM strings list units from the 5' end as sugar, base in round brackets, then linkage (d deoxyribose, r ribose, m 2'-O-methyl, p phosphodiester). Strings are as the collection lists them, not checked against the first reports. ss, as = sense and antisense strand; [lna] = locked nucleic acid (LNA); [fl2r] = 2'-fluoro
Further: test system not given here.

For the data set the following is noted: siRNA.
“RNA1{r(A)p.r(U)p.r(C)p.r(G)p.r(U)p.r(C)p.r(G)p.r(U)p.m(C)p.r(A)p.r(G)p.r(G)p.r(G)p.m(U)p.r(A)p.r(A)p.r(G)p.r(G)p.r(U)p.r(T)p.r(T)}|RNA2{r(A)p.r(C)p.r(C)p.r(U)p.m(U)p.r(A)p.r(C)p.r(C)p.r(C)p.m(U)p.r(G)p.r(A)p.r(C)p.r(G)p.r(A)p.r(C)p.r(G)p.r(A)p.r(U)p.r(T)p.r(T)}$$$RNA1{StrandType:ss}|RNA2{StrandType:as}$” registered a target mRNA knockdown of 47%. With “RNA1{r(A)p.r(U)p.r(C)p.r(G)p.r(U)p.r(C)p.r(G)p.r(U)p.r(C)p.r(A)p.r(G)p.r(G)p.r(G)p.m(U)p.r(A)p.r(A)p.r(G)p.r(G)p.r(U)p.r(T)p.r(T)}|RNA2{r(A)p.r(C)p.r(C)p.r(U)p.m(U)p.r(A)p.r(C)p.r(C)p.r(C)p.r(U)p.r(G)p.r(A)p.r(C)p.r(G)p.r(A)p.r(C)p.r(G)p.r(A)p.r(U)p.r(T)p.r(T)}$$$RNA1{StrandType:ss}|RNA2{StrandType:as}$”, the target mRNA knockdown stood at 49%. To “RNA1{r(A)p.r(U)p.r(C)p.r(U)p.r(G)p.r(A)p.r(A)p.r(G)p.r(A)p.r(A)p.r(G)p.r(G)p.r(A)p.r(G)p.r(A)p.r(A)p.r(A)p.r(A)p.r(A)p.[lna](T)p.[lna](T)}|RNA2{[lna](T)p.r(U)p.r(U)p.r(U)p.r(U)p.r(C)p.r(U)p.r(C)p.r(C)p.r(U)p.r(U)p.r(C)p.r(U)p.r(U)p.r(C)p.r(A)p.r(G)p.r(A)p.r(U)p.[lna](T)p.[lna](T)}$$$RNA1{StrandType:ss}|RNA2{StrandType:as}$” belongs 52% and 63%; to “RNA1{r(A)p.r(U)p.r(C)p.r(U)p.r(G)p.r(A)p.r(A)p.r(G)p.r(A)p.r(A)p.r(G)p.r(G)p.r(A)p.r(G)p.r(A)p.r(A)p.r(A)p.r(A)p.r(A)p.[lna](T)p.[lna](T)}|RNA2{r(U)p.r(U)p.r(U)p.r(U)p.r(U)p.r(C)p.r(U)p.r(C)p.r(C)p.r(U)p.r(U)p.r(C)p.r(U)p.r(U)p.r(C)p.r(A)p.r(G)p.r(A)p.r(U)p.[lna](T)p.[lna](T)}$$$RNA1{StrandType:ss}|RNA2{StrandType:as}$”, 93%; to “RNA1{r(A)p.r(U)p.r(C)p.r(U)p.r(G)p.r(A)p.r(A)p.r(G)p.r(A)p.r(A)p.r(G)p.r(G)p.r(A)p.r(G)p.r(A)p.r(A)p.r(A)p.r(A)p.r(A)p.d(T)p.d(T)}|RNA2{[lna](T)p.r(U)p.r(U)p.r(U)p.r(U)p.r(C)p.r(U)p.r(C)p.r(C)p.r(U)p.r(U)p.r(C)p.r(U)p.r(U)p.r(C)p.r(A)p.r(G)p.r(A)p.r(U)p.[lna](T)p.[lna](T)}$$$RNA1{StrandType:ss}|RNA2{StrandType:as}$”, 45%. The substance “RNA1{r(A)p.r(U)p.r(C)p.r(U)p.r(G)p.r(A)p.r(A)p.r(G)p.r(A)p.r(A)p.r(G)p.r(G)p.r(A)p.r(G)p.r(A)p.r(A)p.r(A)p.r(A)p.r(A)p.d(T)p.d(T)}|RNA2{r(U)p.r(U)p.r(U)p.r(U)p.r(U)p.r(C)p.r(U)p.r(C)p.r(C)p.r(U)p.r(U)p.r(C)p.r(U)p.r(U)p.r(C)p.r(A)p.r(G)p.r(A)p.r(U)p.[lna](T)p.[lna](T)}$$$RNA1{StrandType:ss}|RNA2{StrandType:as}$” displayed a target mRNA knockdown of 93%. Take “RNA1{r(A)p.r(U)p.r(C)p.r(U)p.r(G)p.r(A)p.r(A)p.r(G)p.r(A)p.r(A)p.r(G)p.r(G)p.r(A)p.r(G)p.r(A)p.r(A)p.r(A)p.r(A)p.r(A)p.d(T)p.d(T)}|RNA2{r(U)p.r(U)p.r(U)p.r(U)p.r(U)p.r(C)p.r(U)p.r(C)p.r(C)p.r(U)p.r(U)p.r(C)p.r(U)p.r(U)p.r(C)p.r(A)p.r(G)p.r(A)p.r(U)p.d(T)p.d(T)}$$$RNA1{StrandType:ss}|RNA2{StrandType:as}$”: the target mRNA knockdown was determined as 95%.

The substance “RNA1{r(A)p.r(U)p.r(C)p.r(U)p.r(G)p.r(A)p.r(A)p.r(G)p.r(A)p.r(A)p.r(G)p.r(G)p.r(A)p.r(G)p.r(A)p.r(A)p.r(A)p.r(A)p.r(A)p.r(T)p.r(T)}|RNA2{[lna](T)p.r(U)p.r(U)p.r(U)p.r(U)p.r(C)p.r(U)p.r(C)p.r(C)p.r(U)p.r(U)p.r(C)p.r(U)p.r(U)p.r(C)p.r(A)p.r(G)p.r(A)p.r(U)p.[lna](T)p.[lna](T)}$$$RNA1{StrandType:ss}|RNA2{StrandType:as}$” registered a target mRNA knockdown of 22%. In turn, “RNA1{r(A)p.r(U)p.r(C)p.r(U)p.r(G)p.r(A)p.r(A)p.r(G)p.r(A)p.r(A)p.r(G)p.r(G)p.r(A)p.r(G)p.r(A)p.r(A)p.r(A)p.r(A)p.r(A)p.r(T)p.r(T)}|RNA2{r(U)p.r(U)p.r(U)p.r(U)p.r(U)p.r(C)p.r(U)p.r(C)p.r(C)p.r(U)p.r(U)p.r(C)p.r(U)p.r(U)p.r(C)p.r(A)p.r(G)p.r(A)p.r(U)p.[lna](T)p.[lna](T)}$$$RNA1{StrandType:ss}|RNA2{StrandType:as}$” returned a target mRNA knockdown of 90%. “RNA1{r(A)p.r(U)p.r(G)p.r(G)p.r(G)p.r(A)p.r(G)p.r(A)p.r(A)p.r(G)p.m(U)p.r(A)p.r(G)p.r(U)p.r(C)p.r(C)p.r(C)p.r(C)p.r(C)p.r(T)p.r(T)}|RNA2{r(G)p.r(G)p.r(G)p.r(G)p.r(G)p.r(A)p.r(C)p.m(U)p.r(A)p.r(C)p.r(U)p.r(U)p.r(C)p.r(U)p.r(C)p.r(C)p.r(C)p.r(A)p.r(U)p.r(T)p.r(T)}$$$RNA1{StrandType:ss}|RNA2{StrandType:as}$” returned a target mRNA knockdown of 84%.

For “RNA1{r(C)p.[fl2r](C)p.r(A)p.r(G)p.r(C)p.r(G)p.r(A)p.r(G)p.r(C)p.r(C)p.[fl2r](C)p.r(A)p.r(A)p.r(A)p.r(A)p.[fl2r](G)p.r(A)p.r(A)p.r(A)p.r(T)p.r(T)}|RNA2{r(U)p.r(U)p.r(U)p.r(C)p.r(U)p.r(U)p.r(U)p.[fl2r](U)p.r(G)p.r(G)p.r(G)p.r(C)p.r(U)p.r(C)p.r(G)p.r(C)p.[fl2r](U)p.r(G)p.r(G)p.r(T)p.r(T)}$$$RNA1{StrandType:ss}|RNA2{StrandType:as}$”, the target mRNA knockdown amounted to 82%. For “RNA1{r(C)p.[fl2r](C)p.r(A)p.r(G)p.r(C)p.r(G)p.r(A)p.r(G)p.r(C)p.r(C)p.[fl2r](C)p.r(A)p.r(A)p.r(A)p.r(A)p.r(G)p.r(A)p.r(A)p.r(A)p.r(T)p.r(T)}|RNA2{r(U)p.r(U)p.r(U)p.r(C)p.r(U)p.r(U)p.r(U)p.r(U)p.r(G)p.r(G)p.r(G)p.r(C)p.r(U)p.r(C)p.r(G)p.r(C)p.r(U)p.r(G)p.r(G)p.r(T)p.r(T)}$$$RNA1{StrandType:ss}|RNA2{StrandType:as}$” the value was 85%. In turn, “RNA1{r(C)p.[fl2r](U)p.r(A)p.[fl2r](A)p.r(G)p.[fl2r](C)p.r(C)p.[fl2r](U)p.r(G)p.[fl2r](U)p.r(U)p.[fl2r](U)p.r(C)p.[fl2r](U)p.r(U)p.[fl2r](C)p.r(C)p.[fl2r](U)p.r(C)p.r(T)p.r(T)}|RNA2{r(G)p.[fl2r](A)p.r(G)p.r(G)p.[fl2r](A)p.[fl2r](A)p.r(G)p.[fl2r](A)p.[fl2r](A)p.[fl2r](A)p.r(C)p.[fl2r](A)p.r(G)p.r(G)p.r(C)p.r(U)p.r(U)p.[fl2r](A)p.r(G)p.r(T)p.r(T)}$$$RNA1{StrandType:ss}|RNA2{StrandType:as}$” returned a target mRNA knockdown of 75%. Substance “RNA1{r(C)p.[fl2r](U)p.r(A)p.r(A)p.r(G)p.r(C)p.r(C)p.r(U)p.r(G)p.r(U)p.r(U)p.r(U)p.r(C)p.r(U)p.r(U)p.r(C)p.r(C)p.r(U)p.r(C)p.r(T)p.r(T)}|RNA2{r(G)p.r(A)p.r(G)p.r(G)p.r(A)p.r(A)p.r(G)p.r(A)p.r(A)p.r(A)p.r(C)p.r(A)p.r(G)p.r(G)p.r(C)p.r(U)p.r(U)p.r(A)p.r(G)p.r(T)p.r(T)}$$$RNA1{StrandType:ss}|RNA2{StrandType:as}$” yielded a target mRNA knockdown of 82%. In turn, “RNA1{r(C)p.[fl2r](U)p.r(A)p.r(G)p.r(A)p.r(G)p.r(G)p.[fl2r](A)p.r(U)p.r(C)p.r(U)p.[fl2r](U)p.r(G)p.r(A)p.r(A)p.r(G)p.r(A)p.r(C)p.r(C)p.r(T)p.r(T)}|RNA2{r(G)p.r(G)p.r(U)p.r(C)p.r(U)p.r(U)p.r(C)p.r(A)p.r(A)p.r(G)p.r(A)p.r(U)p.r(C)p.r(C)p.r(U)p.r(C)p.[fl2r](U)p.r(A)p.r(G)p.r(T)p.r(T)}$$$RNA1{StrandType:ss}|RNA2{StrandType:as}$” displayed a target mRNA knockdown of 78%. To “RNA1{r(C)p.[fl2r](U)p.r(A)p.r(G)p.r(A)p.r(G)p.r(G)p.r(A)p.r(U)p.r(C)p.r(U)p.[fl2r](U)p.r(G)p.r(A)p.r(A)p.r(G)p.r(A)p.r(C)p.r(C)p.r(T)p.r(T)}|RNA2{r(G)p.r(G)p.r(U)p.r(C)p.r(U)p.r(U)p.[fl2r](C)p.r(A)p.r(A)p.r(G)p.r(A)p.r(U)p.r(C)p.r(C)p.r(U)p.r(C)p.[fl2r](U)p.r(A)p.r(G)p.r(T)p.r(T)}$$$RNA1{StrandType:ss}|RNA2{StrandType:as}$” belongs 67% and 91%. In turn, “RNA1{r(C)p.[fl2r](U)p.r(A)p.r(G)p.r(A)p.r(G)p.r(G)p.r(A)p.r(U)p.r(C)p.r(U)p.r(U)p.r(G)p.r(A)p.r(A)p.r(G)p.r(A)p.r(C)p.r(C)p.r(T)p.r(T)}|RNA2{r(G)p.r(G)p.r(U)p.r(C)p.r(U)p.r(U)p.r(C)p.r(A)p.r(A)p.r(G)p.r(A)p.r(U)p.r(C)p.r(C)p.r(U)p.r(C)p.r(U)p.r(A)p.r(G)p.r(T)p.r(T)}$$$RNA1{StrandType:ss}|RNA2{StrandType:as}$” registered a target mRNA knockdown of 81%. Turning to “RNA1{r(C)p.[fl2r](U)p.r(G)p.r(A)p.r(C)p.r(C)p.r(G)p.r(G)p.r(A)p.r(A)p.[fl2r](G)p.r(C)p.r(G)p.r(C)p.r(U)p.[fl2r](U)p.r(A)p.r(A)p.r(A)p.r(T)p.r(T)}|RNA2{r(U)p.r(U)p.[fl2r](U)p.r(A)p.r(A)p.r(G)p.r(C)p.r(G)p.r(C)p.r(U)p.r(U)p.r(C)p.r(C)p.r(G)p.r(G)p.r(U)p.[fl2r](C)p.r(A)p.r(G)p.r(T)p.r(T)}$$$RNA1{StrandType:ss}|RNA2{StrandType:as}$”, the target mRNA knockdown stood at 85%. Regarding “RNA1{r(C)p.[fl2r](U)p.r(G)p.r(A)p.r(C)p.r(C)p.r(G)p.r(G)p.r(A)p.r(A)p.r(G)p.r(C)p.r(G)p.r(C)p.r(U)p.r(U)p.r(A)p.r(A)p.r(A)p.r(T)p.r(T)}|RNA2{r(U)p.r(U)p.[fl2r](U)p.r(A)p.r(A)p.r(G)p.r(C)p.r(G)p.r(C)p.r(U)p.r(U)p.r(C)p.r(C)p.r(G)p.r(G)p.r(U)p.r(C)p.r(A)p.r(G)p.r(T)p.r(T)}$$$RNA1{StrandType:ss}|RNA2{StrandType:as}$”, the target mRNA knockdown was found to be 87%.
